Values quoted from earlier work in publication PMC2891520 (The Journal of neuroscience : the official journal of the …, 2010).

Target: CaMKII (Homo sapiens, UniProt Q9UQM7)
Details: ref Vest et al., 2010

SMILES: COc1ccc(S(=O)(=O)N(CCO)c2ccccc2CN(C)C/C=C/c2ccc(Cl)cc2)cc1 [KN93]
- block of autonomous CaMKII activity once generated: does not block autonomous activity once it is generated
